In assay [1] the target is T1, TfHex (β-N-acetylhexosaminidase from Talaromyces flavus) (Talaromyces flavus, UniProt G5DAA0, E332K).
T1 construct: secreted via alpha-factor, pPICZαA, Pichia pastoris KM71H, cation-exchange purified; tetramer of two catalytic subunits and two non-covalently linked propeptides
Description: discontinuous p-nitrophenolate release assay, non-linear regression. In kind it is biochemical. To be noted: McIlvaine buffer pH 5.0, 25 °C; not measured to full saturation, estimate only. The source says:
discontinuous p-nitrophenolate release assay, non-linear regression on TfHex (β-N-acetylhexosaminidase from Talaromyces flavus) | for Glu332Lys TfHex, only estimates of kinetic parameters are presented

Assay [2] deals with T2, TfHex (β-N-acetylhexosaminidase from Talaromyces flavus) (Talaromyces flavus, UniProt G5DAA0, E332H).
T2 construct: secreted via alpha-factor, pPICZαA, Pichia pastoris KM71H, cation-exchange purified; tetramer of two catalytic subunits and two non-covalently linked propeptides
T2 sequence (G5DAA0 entry or part of it E332H): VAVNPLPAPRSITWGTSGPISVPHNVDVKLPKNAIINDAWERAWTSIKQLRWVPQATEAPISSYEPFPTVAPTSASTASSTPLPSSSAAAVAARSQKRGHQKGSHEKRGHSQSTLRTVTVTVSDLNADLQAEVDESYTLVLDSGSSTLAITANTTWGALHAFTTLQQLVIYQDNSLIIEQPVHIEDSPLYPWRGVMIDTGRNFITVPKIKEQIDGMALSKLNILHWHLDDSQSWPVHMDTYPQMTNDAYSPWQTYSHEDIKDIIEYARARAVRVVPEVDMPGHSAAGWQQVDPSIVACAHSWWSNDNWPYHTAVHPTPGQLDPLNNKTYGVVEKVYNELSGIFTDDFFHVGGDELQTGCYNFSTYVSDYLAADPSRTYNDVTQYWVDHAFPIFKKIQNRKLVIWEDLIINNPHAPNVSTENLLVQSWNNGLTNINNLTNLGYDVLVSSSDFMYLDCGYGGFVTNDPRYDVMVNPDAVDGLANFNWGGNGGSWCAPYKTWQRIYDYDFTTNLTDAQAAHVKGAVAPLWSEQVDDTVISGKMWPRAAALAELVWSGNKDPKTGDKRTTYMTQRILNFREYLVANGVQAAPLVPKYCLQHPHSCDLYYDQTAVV
The description is as above. It counts as biochemical. To be noted: McIlvaine buffer pH 5.0, 25 °C; not measured to full saturation.

What is called Km is the substrate concentration at which the rate is half of its maximum.

T1 sequence (G5DAA0 entry or part of it E332K): as the sequence (G5DAA0 entry or part of it E332H) above, with H315K counted along it

With `CC(=O)N[C@H]1[C@H](Oc2ccc([N+](=O)[O-])cc2)O[C@H](CO)[C@@H](O)[C@@H]1O` [pNP-GlcNAc, p-Nitrophenyl 2-acetamido-2-deoxy-β-D-glucopyranoside], the Km in assay [1] and in assay [2] was greater than 7 mM in each case.

These data come from paper PMC9604439, “Mutation Hotspot for Changing the Substrate Specificity of β-N-Acetylhexosaminidase: A Library of GlcNAcases” (International Journal of Molecular Sciences, 2022).
